What is called IC50 is the point on the concentration scale where inhibition reaches its midpoint. A high value points to a need for much substance.

We go through 6 compounds from patent US9663543B2 (priority 2014, dated 2017).

Sequence of Human factor D (P00746 26-253 limits assumed): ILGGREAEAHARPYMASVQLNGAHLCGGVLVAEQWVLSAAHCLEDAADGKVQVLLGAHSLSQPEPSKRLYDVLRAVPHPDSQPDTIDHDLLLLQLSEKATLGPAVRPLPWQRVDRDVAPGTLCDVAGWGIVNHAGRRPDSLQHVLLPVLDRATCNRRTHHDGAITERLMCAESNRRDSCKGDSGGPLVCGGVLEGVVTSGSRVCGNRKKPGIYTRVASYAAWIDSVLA

The assay addresses Human factor D (Homo sapiens (Human), UniProt P00746). It counts as biochemical.
`CC(=O)c1cn(CC(=O)N2C[C@H](F)C[C@H]2C(=O)NCc2cccc(Cl)c2F)c2cc(P(=O)(O)OCOC(=O)C(C)(C)C)ccc12` [Compound 28, ((3-acetyl-1-(2-((2S,4R)-2-(3-chloro-2-fluorobenzylcarbamoyl)-4-fluoropyrrolidin-1-yl)-2-oxoethyl)-1H-indol-6-yl)(hydroxy)phosphoryloxy) methyl pivalate]: the IC50 is less than 1000 nM.
With `O=C(NCc1cccc(Cl)c1F)[C@@H]1C[C@@H](F)CN1C(=O)Cn1cc(C(=O)C(F)(F)F)c2ccc(P(=O)(O)O)cc21` [Compound 32, 1-(2-((2S,4R)-2-(3-chloro-2-fluorobenzylcarbamoyl)-4-fluoropyrrolidin-1-yl)-2-oxoethyl)-3-(2,2,2-trifluoroacetyl)-1H-indol-6-ylphosphonic acid] the figure was less than 1000 nM; with `CCP(=O)(O)c1ccc2c(C(C)=O)cn(CC(=O)N3C[C@H](F)C[C@H]3C(=O)NCc3cccc(Cl)c3F)c2c1` [Compound 27, 3-acetyl-1-(2-((2S,4R)-2-(3-chloro-2-fluorobenzylcarbamoyl)-4-fluoropyrrolidin-1-yl)-2-oxoethyl)-1H-indol-6-yl(ethyl)phosphinic acid], less than 1000 nM; with `NC(=O)c1cn(CC(=O)N2C[C@H](F)C[C@H]2C(=O)NCc2cccc(Cl)c2F)c2cc(P(=O)(O)O)ccc12` [Compound 16, 3-carbamoyl-1-(2-((2S,4R)-2-(3-chloro-2-fluorobenzylcarbamoyl)-4-fluoropyrrolidin-1-yl)-2-oxoethyl)-1H-indol-6-ylphosphonic acid], less than 1000 nM.
In the case of `CC(=O)c1cn(CC(=O)N2C[C@H](F)C[C@H]2C(=O)NCc2cccc(Cl)c2F)c2cc(P(=O)(O)c3ccccc3)ccc12` [Compound 25, 3-acetyl-1-(2-((2S,4R)-2-(3-chloro-2-fluorobenzylcarbamoyl)-4-fluoropyrrolidin-1-yl)-2-oxoethyl)-1H-indol-6-yl(phenyl)phosphinic acid], the IC50 is less than 1000 nM.
With `CC(=O)c1cn(CC(=O)N2C[C@H](F)C[C@H]2C(=O)NCc2cccc(Cl)c2F)c2ccc(P(=O)(O)O)cc12` [Compound 10, 3-acetyl-1-(2-((2S,4R)-2-(3-chloro-2-fluorobenzylcarbamoyl)-4-fluoropyrrolidin-1-yl)-2-oxoethyl)-1H-indol-5-ylphosphonic acid] the figure was less than 1000 nM.
